Measurements as given in patent US7560473B2 (Institute of Pharmacology and Toxicology Academy of …, priority 2001, dated 2009).
Marks after values point to notes of the source that are not given here.

System: SHRsp
Assay: Prophylaxis and treatment of SHRsp cerebral apoplexy
Assay type: in vivo, rats
Details: for Survival time: control 4.6 ± 3.8; for Survival time / Period needed for onset of cerebral apoplexy: means ± SD; for Period needed for onset of cerebral apoplexy: control 48.3 ± 7.4; for Death rate of cerebral apoplexy / Rate of cerebral apoplexy: n 12; for Death rate of cerebral apoplexy: control 50.0; for Rate of cerebral apoplexy: control 83.3
Protocol: Biological activity experiment 8 the prophylaxis and treatment of cerebral apoplexy with compound 1 of formula Ia
The methods of biological activity experiments were carried out as follows: Desired concentration of compound 1 was prepared with distilled water, while desired concentration of nimodipine was prepared with market available Jinglongyu^T oil. 30 male and 30 female SHRsp (10 weeks old, 120-180 g) were purchased from the vascular disease research center of Academy of Military Medical Science. All SHRsp were divided randomly into five groups based on blood pressure, body weight and sex: control group (fed with equal amount of Jinglongyu^T oil), […], […], […], and 4.0 mg.kg^−1d^−1 nimodipine treated group. Each group contained 12 animals and 4-5 animals were fed in a cage. The feedstaff (containing 23-24% protein) was purchased from experimental animal center of Academy of Military Medical Science. The animals were fed with tap water containing 1% NaCl to accelerate the onset of cerebral apoplexy. 12 normal WKY rats (with the same age and sex with the above) were selected as control, and fed with tap water and the same feedstuff. When reached 11 weeks old, the animals were fed with drugs for experiments.

SMILES: CC(C)NC(C)(C)C(C)C [compound 1, N-(1-methylethyl)-2,3-dimethyl-2-butylamine]
- Survival time (0.25 mg · kg^−1d^−1 fed): 7.2 ± 5.3 days
- Period needed for onset of cerebral apoplexy (0.25 mg · kg^−1d^−1 fed): 58.6 ± 14.1 days
- Death rate of cerebral apoplexy (0.25 mg · kg^−1d^−1 fed): 27.3%
- Rate of cerebral apoplexy (0.25 mg · kg^−1d^−1 fed): 72.7%
- Survival time (1 mg · kg^−1d^−1 fed): 10.2 ± 4.1 days
- Period needed for onset of cerebral apoplexy (1 mg · kg^−1d^−1 fed): 60.8 ± 18.9 days
- Death rate of cerebral apoplexy (1 mg · kg^−1d^−1 fed): 20.0%
- Rate of cerebral apoplexy (1 mg · kg^−1d^−1 fed): 40.0* %
- Survival time (4 mg · kg^−1d^−1 fed): 11.8 ± 3.2 days
- Period needed for onset of cerebral apoplexy (4 mg · kg^−1d^−1 fed): 68.6 ± 16.5 days
- Death rate of cerebral apoplexy (4 mg · kg^−1d^−1 fed): 8.3* %
- Rate of cerebral apoplexy (4 mg · kg^−1d^−1 fed): 33.3* %
- nerve symptom of cerebral apoplexy (in words) (SHRsp): significantly improve the nerve symptom
